Data set [1] relates to Mycobacterium tuberculosis. In words: Antimycobacterial activity against Mycobacterium tuberculosis H37Rv by two fold agar dilution method. The class given is functional.
The next data set has as its system Vero. Put plainly: Cytotoxicity against African green monkey Vero cells at 62.5 ug/ml after 72 hrs by MTT assay. The class given is cell-based. The conditions noted are these: chlorocebus sabaeus.

The structures appear in SMILES notation. Converted amounts (≈) assume the structure as drawn.

Regarding `Cc1c(NCc2nnc(Nc3ccc(F)c(Cl)c3)o2)c(=O)n(-c2ccccc2)n1C`, it took 6.25 µg/mL (≈ 14.6 µM) to inhibit growth in data set [1] (MIC). For the same molecule, the Activity result with Vero is given as “Non-toxic”. On to `Cc1c(NCc2nnc(Nc3ccc(F)cc3)o2)c(=O)n(-c2ccccc2)n1C`, for which, in data set [1], the MIC – broadly, the least concentration at which growth counts as inhibited – was 0.78 µg/mL (≈ 1.98 µM). Also, the Activity entry in the data set on Vero is “Non-toxic”. As to `Cc1c(NCc2nnc(Nc3ccc(Cl)cc3)o2)c(=O)n(-c2ccccc2)n1C`, in data set [1], the MIC worked out at 6.25 µg/mL (≈ 15.2 µM). The Activity entry in the data set on Vero is on record as “Non-toxic”.

In data set [1], `Cc1c(NCc2nnc(Nc3ccc(Br)cc3)o2)c(=O)n(-c2ccccc2)n1C` returned an MIC of 6.25 µg/mL (≈ 13.7 µM). In the data set with Vero, the Activity result is recorded as “Non-toxic”. In data set [1], `Cc1c(NCc2nnc(Nc3ccccc3Cl)o2)c(=O)n(-c2ccccc2)n1C` registered an MIC of 10 µg/mL (≈ 24.3 µM). Still for that read-out and setting: under `Cc1c(Cl)cccc1Nc1nnc(CNc2c(C)n(C)n(-c3ccccc3)c2=O)o1` stands 10 µg/mL (≈ 23.5 µM). Molecule `Cc1c(NCc2nnc(Nc3ccc([N+](=O)[O-])cc3)o2)c(=O)n(-c2ccccc2)n1C` came in with an MIC in data set [1] of 3.12 µg/mL (≈ 7.4 µM). The Activity entry with Vero is on record as “Non-toxic”.

In data set [1], `Cc1ccc(Nc2nnc(CNc3c(C)n(C)n(-c4ccccc4)c3=O)o2)cc1` yielded an MIC of 12.5 µg/mL (≈ 32 µM). The same measure, in the same setting: the result for `COc1ccc(Nc2nnc(CNc3c(C)n(C)n(-c4ccccc4)c3=O)o2)cc1` reads 12.5 µg/mL (≈ 30.8 µM); that for `CCOc1ccc(Nc2nnc(CNc3c(C)n(C)n(-c4ccccc4)c3=O)o2)cc1`, over 12.5 µg/mL. As for `Cc1ccc(Nc2nnc(CNc3c(C)n(C)n(-c4ccccc4)c3=O)o2)c(C)c1`, the minimum inhibitory concentration (MIC) in data set [1] is 12.5 µg/mL (≈ 30.9 µM). Same read-out and setting: under `Cc1cccc(C)c1Nc1nnc(CNc2c(C)n(C)n(-c3ccccc3)c2=O)o1` stands 10 µg/mL (≈ 24.7 µM). Same read-out and setting: under `COc1ccc(Nc2nnc(CNc3c(C)n(C)n(-c4ccccc4)c3=O)o2)c(OC)c1` stands over 12.5 µg/mL.

Turning to `Cc1c(NCc2nnc(Nc3ccc(O)cc3)o2)c(=O)n(-c2ccccc2)n1C`, the minimum inhibitory concentration (MIC) in data set [1] was 10 µg/mL (≈ 25.5 µM). Molecule `Cc1c(NCc2nnc(Nc3ccc(S(N)(=O)=O)cc3)o2)c(=O)n(-c2ccccc2)n1C` had an MIC in data set [1] of 3.12 µg/mL (≈ 6.85 µM). For the same molecule, the Activity entry in the data set on Vero is given as “Non-toxic”. Consider `Cc1c(NCc2nnc(Nc3ccccc3)o2)c(=O)n(-c2ccccc2)n1C`, for which the minimal inhibitory concentration (MIC) in data set [1] turned out to be 10 µg/mL (≈ 26.6 µM). The same measure, in the same setting: under `NNC(=O)c1ccncc1` [ISONIAZID] stands 0.78 µg/mL (≈ 5.69 µM).

(Values after ChEMBL document CHEMBL1938310, “Discovery of novel antitubercular 1,5-dimethyl-2-phenyl-4-([5-(arylamino)-1,3,4-oxadiazol-2-yl]methylamino)-1,2-dihydro-3H-pyrazol-3-one analogues” (Bioorg Med Chem Lett, 2012).)
